# Columns and labels:
# Assay in all cases: MTS viability assay, ZD2767P prodrug, untransduced vs VV-CPG2-transduced cells
# SW620 cells = assay type: cell-based; conditions: SW620 cells transduced with VV-CPG2 at MOI 0.1 vs untransduced
# FaDu cells = assay type: cell-based, human; conditions: FaDu cells transduced with VV-CPG2 at MOI 0.1 vs untransduced
# WM226.4 cells = assay type: cell-based; conditions: WM226.4 cells transduced with VV-CPG2 at MOI 0.1 vs untransduced
structure (smiles),measurement,setting,value
"O=C(O)CC[C@H](NC(=O)Oc1ccc(N(CCI)CCI)cc1)C(=O)O [ZD2767P, N-(4-[bis(2-iodoethyl)amino]phenoxycarbonyl)-L-glutamic acid]",reduction of the EC50 of ZD2767P,SW620 cells,119 fold
same,reduction of the EC50 of ZD2767P,FaDu cells,103 fold
same,reduction of the EC50 of ZD2767P,WM226.4 cells,114 fold
